Results published in the supplement of paper PMC10307832.

Experiments:
Test in all cases: relative viability (nuclei count vs DMSO), 5 days (fraction); higher = more cells survive
[1] = tested on: 201T
Outline: (§1)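 One day after seeding in 1536-well plates, lung cancer cell lines were dosed by pin tool. Dosing was either single-drug or a fixed anchor-drug dose plus five library-drug doses (not always all listed) in √10 steps. After 5 days, nuclei were stained in one fix-and-stain step and counted on 4× images, and relative viability is the nuclei count of treated wells over that of vehicle wells, given as the median of duplicate plates.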

[2] = tested on: A-427
Outline: as §1

[3] = tested on: BEN
Outline: as §1

[4] = tested on: COR-L23
Outline: as §1

[5] = tested on: EKVX
Outline: as §1

[6] = tested on: EMC-BAC-2
Outline: as §1

[7] = tested on: EPLC-272H
Outline: as §1

[8] = tested on: HCC-44
Outline: as §1

[9] = tested on: HCC-827
Outline: as §1

[10] = tested on: LCLC-103H
Outline: as §1

[11] = tested on: LK-2
Outline: as §1

[12] = tested on: LXF-289
Outline: as §1

[13] = tested on: NCI-H1650
Outline: as §1

[14] = tested on: NCI-H1651
Outline: as §1

[15] = tested on: NCI-H1793
Outline: as §1

[16] = tested on: NCI-H1915
Outline: as §1

[17] = tested on: NCI-H2087
Outline: as §1

[18] = tested on: NCI-H2126
Outline: as §1

[19] = tested on: NCI-H2347
Outline: as §1

[20] = tested on: NCI-H358
Outline: as §1

[21] = tested on: NCI-H460
Outline: as §1

[22] = tested on: NCI-H596
Outline: as §1

[23] = tested on: SW 1573
Outline: as §1

For `Cc1cnc(-c2cnc(NCCNc3ccc(C#N)cn3)nc2-c2ccc(Cl)cc2Cl)[nH]1` + O=C(CCCCCCC(=O)Nc1ccccc1)NO [Vorinostat] (partner 1 µM), the relative viability ([1]; first compound 0.08 µM) was 1.01, the relative viability ([1]; first compound 0.8 µM) was 0.977 and the relative viability ([1]; first compound 2.53 µM) was 0.912. The relative viability ([2]; first compound 0.08 µM) was 0.868, the relative viability ([2]; first compound 0.253 µM) was 0.826 and the relative viability ([2]; first compound 0.8 µM) was 0.826. It also gave a relative viability ([2]; first compound 2.53 µM) of 0.854, a relative viability ([3]; first compound 0.08 µM) of 0.575 and a relative viability ([3]; first compound 0.253 µM) of 0.559. The relative viability ([3]; first compound 0.8 µM) was 0.595, the relative viability ([3]; first compound 2.53 µM) was 0.559 and the relative viability ([4]; first compound 0.08 µM) was 0.556. It also gave a relative viability ([4]; first compound 0.253 µM) of 0.42, a relative viability ([4]; first compound 0.8 µM) of 0.508 and a relative viability ([4]; first compound 2.53 µM) of 0.505. It also gave a relative viability ([5]; first compound 0.08 µM) of 0.789, a relative viability ([5]; first compound 0.253 µM) of 0.529 and a relative viability ([5]; first compound 0.8 µM) of 0.658. For the same compound, the relative viability ([5]; first compound 2.53 µM) was 0.745, the relative viability ([6]; first compound 0.08 µM) was 0.46 and the relative viability ([6]; first compound 0.253 µM) was 0.397. For the same compound, the relative viability ([6]; first compound 0.8 µM) was 0.373, the relative viability ([6]; first compound 2.53 µM) was 0.372 and the relative viability ([7]; first compound 0.08 µM) was 0.658. The relative viability ([7]; first compound 0.8 µM) was 0.531, the relative viability ([7]; first compound 2.53 µM) was 0.581 and the relative viability ([8]; first compound 0.08 µM) was 1.05. For the same compound, the relative viability ([8]; first compound 0.253 µM) was 1.16, the relative viability ([8]; first compound 0.8 µM) was 1.03 and the relative viability ([8]; first compound 2.53 µM) was 1.24. It also gave a relative viability ([9]; first compound 0.08 µM) of 0.85, a relative viability ([9]; first compound 0.253 µM) of 0.306 and a relative viability ([9]; first compound 0.8 µM) of 0.827. It also gave a relative viability ([9]; first compound 2.53 µM) of 0.871, a relative viability ([10]; first compound 0.08 µM) of 0.728 and a relative viability ([10]; first compound 0.253 µM) of 0.541. The relative viability ([10]; first compound 0.8 µM) was 0.689, the relative viability ([10]; first compound 2.53 µM) was 0.698 and the relative viability ([11]; first compound 0.08 µM) was 0.274. The relative viability ([11]; first compound 0.253 µM) was 0.331, the relative viability ([11]; first compound 0.8 µM) was 0.286 and the relative viability ([11]; first compound 2.53 µM) was 0.318. For the same compound, the relative viability ([12]; first compound 0.08 µM) was 0.737, the relative viability ([12]; first compound 0.253 µM) was 0.693 and the relative viability ([12]; first compound 0.8 µM) was 0.734. For the same compound, the relative viability ([12]; first compound 2.53 µM) was 0.846, the relative viability ([13]; first compound 0.08 µM) was 0.564 and the relative viability ([13]; first compound 0.253 µM) was 0.508. For the same compound, the relative viability ([13]; first compound 0.8 µM) was 0.546, the relative viability ([13]; first compound 2.53 µM) was 0.661 and the relative viability ([14]; first compound 0.08 µM) was 0.539. The relative viability ([14]; first compound 0.253 µM) was 0.459, the relative viability ([14]; first compound 0.8 µM) was 0.537 and the relative viability ([14]; first compound 2.53 µM) was 0.58. It also gave a relative viability ([15]; first compound 0.08 µM) of 0.59, a relative viability ([15]; first compound 0.253 µM) of 0.666 and a relative viability ([15]; first compound 0.8 µM) of 0.739. It also gave a relative viability ([15]; first compound 2.53 µM) of 0.864, a relative viability ([16]; first compound 0.08 µM) of 0.532 and a relative viability ([16]; first compound 0.8 µM) of 0.504. The relative viability ([16]; first compound 2.53 µM) was 0.513, the relative viability ([17]; first compound 0.08 µM) was 0.871 and the relative viability ([17]; first compound 0.8 µM) was 0.514. It also gave a relative viability ([17]; first compound 2.53 µM) of 0.663, a relative viability ([18]; first compound 0.08 µM) of 0.775 and a relative viability ([18]; first compound 0.253 µM) of 0.695. The relative viability ([18]; first compound 0.8 µM) was 0.703, the relative viability ([18]; first compound 2.53 µM) was 0.819 and the relative viability ([19]; first compound 0.08 µM) was 0.56. The relative viability ([19]; first compound 0.253 µM) was 0.568, the relative viability ([19]; first compound 0.8 µM) was 0.604 and the relative viability ([19]; first compound 2.53 µM) was 0.597. The relative viability ([20]; first compound 0.08 µM) was 0.787, the relative viability ([20]; first compound 0.253 µM) was 0.686 and the relative viability ([20]; first compound 0.8 µM) was 0.69. The relative viability ([20]; first compound 2.53 µM) was 0.585, the relative viability ([21]; first compound 0.08 µM) was 0.71 and the relative viability ([21]; first compound 0.253 µM) was 0.618. It also gave a relative viability ([21]; first compound 0.8 µM) of 0.625, a relative viability ([21]; first compound 2.53 µM) of 0.58 and a relative viability ([22]; first compound 0.08 µM) of 0.544. It also gave a relative viability ([22]; first compound 0.253 µM) of 0.568, a relative viability ([22]; first compound 0.8 µM) of 0.501 and a relative viability ([22]; first compound 2.53 µM) of 0.688. It also gave a relative viability ([23]; first compound 0.08 µM) of 0.849, a relative viability ([23]; first compound 0.253 µM) of 0.815 and a relative viability ([23]; first compound 0.8 µM) of 0.463. It also gave a relative viability ([23]; first compound 2.53 µM) of 0.224.
